Measured values taken from PubChem BioAssay AID179 (DTP/NCI, 2004).
Values joined by “and” are separate entries in the source; they are usually repeats but may differ in a detail not shown here. Equal entries are not always repeated. Active and inactive are the calls of the source.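 How the source made its calls: active means compounds giving half or more protection of infected cells from virus-caused growth loss, again on retest; inactive means the rest.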

Test system: CEM cells HIV-1 protection, formazan growth assay
Assay: NCI AIDS Antiviral Assay
Settings: for IC50: measured here: growth of uninfected CEM cells
Summary of the method: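 Steps: treat uninfected and HIV-1-infected human CEM cells at five drug levels; quantify growth by soluble formazan; retest any compound reaching 50% protection; classify actives from the retest.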

SMILES	EC50 [µM]	IC50	outcome
CC(=O)N(C)c1ccc2ncccc2c1[N+](=O)[O-]	> 1020	562 µM	
COc1cc2c(cc1O)C=NCC2			inactive
O=c1c(=O)c2cc(O)ccc12	> 1700	282 µM	
O=[N+]([O-])c1ccc(C(Cl)S(=O)(=O)c2ccccc2)cc1 (stereo not given)	> 83.2	4.79 µM	
CC1(c2ccccc2)CC12C(=O)NC(=O)NC2=O (stereo not given)	> 107	> 107 µM	
CCOC(=O)C1=NN(c2ccccc2)C2=CC(C)=NN(C)C(=S)N21	> 200	> 200 µM	
COc1ccc(N2C(=O)C3c4[nH]c5ccc(Br)cc5c4C4CCC(C(C)(C)C)CC4C3C2=O)cc1 (stereo not given)			inactive
O=C(CC(O)(C(F)(F)F)C(F)(F)F)c1cccs1	> 200	> 200 µM	
CCN(CC)C(=S)N/N=C/c1ccccn1	> 0.2	0.00363 µM	
COc1ccccc1/C=C/C(=O)c1sc(-c2cccnc2)nc1C	> 15.5	> 15.5 µM	
FC(F)(Sc1ccccc1)c1nc2ccccc2o1	> 77.6	66.1 µM	
CCOC(=O)c1ccccc1-c1c2cc(Br)c(=O)c(Br)c-2oc2c(Br)c(O)c(Br)cc12	> 200	12 µM	
CN(CCO)CCN1c2ccccc2Sc2ccccc21			inactive
CC(=O)N1c2ccccc2C2=CC3C4C(=O)N(c5ccccc5)C(=O)C4C21C1C(=O)N(c2ccccc2)C(=O)C31 (stereo not given)			inactive
Fc1cccc(F)c1C1SCc2nc3cc4ccccc4cc3n21 (stereo not given)	> 200	24.5 µM	
O=S(=O)(NCCSSCCNS(=O)(=O)c1cccs1)c1cccs1	> 200	20 µM	
NC(=O)Nc1c([N+](=O)[O-])cc(C(F)(F)F)cc1[N+](=O)[O-]			inactive
CN(C)CCN1CCc2c([nH]c3ccccc23)C1c1cccnc1 (stereo not given)	> 6.31	> 6.31 µM	
COc1ccc(COC(=O)NCC(=O)NC(C)C(=O)NC(Cc2ccccc2)C(=O)OCc2ccccc2)cc1 (stereo not given)	> 200	45.7 µM and 12.9 µM	
COc1cc2c(cc1OC)C1Cc3cc(OC)c(OC)cc3C(C2)O1	> 200	105 µM	
C(#C[PH+](c1ccccc1)c1ccccc1)c1ccccc1.C(#C[PH+](c1ccccc1)c1ccccc1)c1ccccc1.C(#C[PH+](c1ccccc1)c1ccccc1)c1ccccc1.[C-]#[O+].[C-]#[O+].[C-]#[O+].[Cr]	> 0.55	> 0.55 µM	

SMILES	EC50 [µM]	IC50	outcome
COc1ccc(/C(=N/O)c2ccccc2-c2nc3ccccc3c(=O)n2-c2ccc(S(=O)(=O)Nc3ccccn3)cc2)cc1C	> 100	63.1 µM	
CC1=NN(C(=O)c2ccccc2O)C(=O)/C1=C/c1ccc(O)cc1	> 30.9	0.0589 µM	
O=C(CNc1ccccc1[N+](=O)[O-])Nn1cnc2ccc(S(=O)(=O)Nc3ccccc3[N+](=O)[O-])cc2c1=O	> 200	> 200 µM	
CC(=O)OCC1OC(Nc2[nH]c(=O)n(C)c(=O)c2N=O)C(OC(C)=O)C(OC(C)=O)C1OC(C)=O (stereo not given)	> 200	> 200 µM	
O=C(CN1CCCCC1)OCOP(=O)(OCOC(=O)CN1CCCCC1)OCC1CCC(n2ccc(=O)[nH]c2=O)O1 (stereo not given)	> 100	36.3 µM	
N/C(=N/n1c(=S)[nH]c2ccccc2c1=O)Nn1c(=S)[nH]c2ccccc2c1=O	> 200	19.1 µM	
Cc1ccc(/C=N/Nc2ccc3ccccc3n2)s1	> 200	21.4 µM	
CC1=C2c3ccccc3N(C(=O)/C=C/C(=O)O)[C@H]2[C@H]2C(=O)OC(=O)[C@H]2C1	> 200	151 µM	
O=c1[nH]nnc2c1cnn2C1CCCO1 (stereo not given)			inactive
Cc1ccc(NC(=O)/C(CC(=O)c2sc(Nc3ccccc3Cl)nc2C)=N\Nc2ccc([N+](=O)[O-])cc2[N+](=O)[O-])c(C)c1	> 200	97.7 µM	
CC1C(C)(C)C23CC12C1(OCCO1)C3Br (stereo not given)	> 200	> 200 µM	
N#CC1(C2SCCS2=O)C2=C(C(=O)c3ccccc3C2=O)N2CCCC21 (stereo not given)			inactive
CC(NCCCCCCNC(C)C(=O)O)C(=O)O (stereo not given)	> 589	> 589 µM	
Cc1ccc2c(c1)sc1nnc(C)n12			inactive
C(=N\NC1=NCCN1)/c1ccc2ccccc2c1	> 200	22.9 µM	
C(=C\P(c1ccccc1)c1ccccc1)/P(/C=C/P(c1ccccc1)c1ccccc1)c1ccccc1	> 4.9	> 4.9 µM	
CCOc1cn(C2OC(CO)C(O)C2O)c(=O)[nH]c1=O (stereo not given)	> 871	490 µM	
C=Cc1c2[n-]c(c1C)/C=c1\[n-]/c(c(C)c1C=C)=C\c1[n-]c(c(CCC(=O)O)c1C)/C=c1\[n-]/c(c(C)c1CCC(=O)O)=C\2.[Co]	> 74.1	> 74.1 µM	
CCOC(=O)n1ccc2c(C(=O)OC)c(C(=O)OC)cc(/C(=C/C(=O)OC)C(=O)OC)c21	> 151	102 µM	
CCCCCCCCCCCC(=O)OCC1OC(n2cc(F)c(=O)[nH]c2=O)C(N)C(OC(=O)CCCCCCCCCCC)C1O (stereo not given)	> 3.02	> 3.02 µM	
O=C(NC1CCC[C@H]1OC(=O)c1ccccc1)c1ccccc1 (stereo not given in full)			inactive
